Results on one compound are retold here after patent US20190030114A1, “ISOFORM-SPECIFIC CALPAIN INHIBITORS, METHODS OF IDENTIFICATION, AND USES THEREOF” (WESTERN UNIVERSITY OF HEALTH SCIENCES, priority 2014, published 2019).

In this experiment the test system is retina (GCL, IPL, RGC). As to the kind of experiment: acute IOP elevation (acute angle closure glaucoma model), systemic (i.p.) C2l. Format: in vivo, mice. The procedure: FIG. 11A: Calpain-2 inhibition reduces, while calpain-1 knockout exacerbates, cell death in the ganglion cell layer induced by acute IOP elevation. H&E staining of retinal sections from the right eye of vehicle- or C2l-injected wild-type and calpain-1 KO mice and the left eye where sham surgery was performed. Vehicle, 10% DMSO in PBS, was injected i.p. 30 min before and 2 h after acute IOP elevation. Pre- and post-injection C2l (0.3 mg/kg) was done i.p. 30 min before and 2 h after acute IOP elevation. For the One post injection group, C2l was injected 2 h after IOP elevation. For the Two post inj group, C2l was injected 2 and 4 h after IOP elevation. H&E staining was performed 3 days after surgery. Scale bar=30 μm.
Six sections cut through the optic disc of each eye were analyzed. Cell numbers in GCL at a distance between […] the optic disc were counted. Cell densities in 6 sections from each eye were averaged. Data represent means±S.E.M. n=7 for vehicle, n=3 for pre and post inj, n=10 for one post inj, n=6 for two post inj, n=4 for KO. ns, no significant difference. ***p<0.001, Two-tailed t-test.
FIG. 11C: Comparison of GCL cell survival rates from the right eye of vehicle- or C2l-injected wild-type and calpain-1 KO mice and the left eye where sham surgery was performed, as described in FIG. 11A. Survival rate for each mouse was calculated as the ratio of cell density in GCL of IOP-elevated eye to cell density in GCL of sham eye. *p<0.05, **p<0.01 versus vehicle, One-way ANOVA followed by Bonferroni test.
FIG. 11D: Brn-3a immunostaining in the retina of vehicle- or C2l-injected WT mice. Acute IOP elevation was performed on the right eye, while sham surgery was performed on the left eye. Vehicle, 10% DMSO, or C2l, C2l (0.3 mg/kg) was injected i.p. 2 h after acute IOP elevation. Brn3a staining was performed 3 days after surgery. Scale bar=60 μm.
FIG. 11E: Quantification of brn3a staining, as described in FIG. 11D. Brn3a-positive cells in GCL were counted. Data represents mean±S.E.M. n=4 for vehicle, n=5 for C2l. Ns, no significant difference, **p<0.01 sham versus IOP elevation, two-tailed t-test.
FIG. 11F: Comparison of survival rates. n=4 for vehicle, n=5 for C2l. **p<0.01 vehicle versus C2l, two-tailed t-test.
FIG. 11G: Representative immunoblots of PHLPP1 and STEP33 in retina tissue of WT, calpain-1 KO and C2l-injected mice collected 3 h after sham surgery or acute IOP elevation. C2l (0.3 mg/kg) was injected systemically 2 h after sham surgery or IOP elevation.
FIG. 11H: Quantitative analysis of the levels of PHLPP1 and STEP33 and ratios of pAkt/Akt for each group. Results represent means±S.E.M. of 4 experiments. *p<0.05, **p<0.01, ***p<0.001, ns no significant difference, One-way ANOVA followed by Bonferroni test.
Sequential activation of calpain-1 and calpain-2 in retina after acute IOP elevation. The following IOP elevation studies were performed using a model of acute angle closure glaucoma consisting of increasing intraocular pressure (IOP) to 110 mm Hg for 60 min by inserting a needle connected to an elevated reservoir of saline into the anterior chamber. This model reproduced several features of acute angle closure, including, ischemia of retina and iris as noted by absence of red reflex and pupillary response to light. Anterior chamber synechae, resulting in a narrow angle and adhesions between the iris and the cornea, increased cells and flare in the anterior chamber and increased corneal thickness due to corneal edema. Some of these changes persisted over 3 days of observation. Eyes were collected at 0, 2, 4 and 6 h after IOP elevation and retinal frozen sections were prepared and processed for immunohistochemistry with SBDP antibody. In WT mice, SBDP was clearly present in IPL at 2, 4 and 6 h after IOP elevation. However in calpain-1 KO mice, SBDP was only evident in the IPL at 4 and 6 h but not at 2 h (FIG. 10A and C). […]

Where [1] appears, read: 0.3 mg/kg i.p. 30 min before and 2 h after IOP elevation (pre and post inj), 3 days, n=3.
Setting [2] is: i.p. 2 and 4 h after IOP elevation (two post inj), n=6.
[3] abbreviates: i.p. 2 h after IOP elevation (one post inj), n=10.

As to `CCC(NC(=O)C(CC(C)C)NC(=O)OCc1ccccc1)C(=O)C(=O)NCc1cc(OC)cc(OC)c1` (racemic) [Formula 1, Z-Leu-Abu-CONH—CH2-C6H3 (3, 5-(OMe)2)], the “cell counts in GCL, IOP-elevated eye” value reads like this: under setting [1], 105.8±4.5 cells/mm; under setting [2], 96.1±6.3 cells/mm; under setting [3], 86.4±7.0 cells/mm. In addition, the “cell counts in GCL, sham eye” value reads like this: under setting [1], 125.1±10.5 cells/mm; under setting [2], 118.6±3.7 cells/mm; under setting [3], 110.6±3.6 cells/mm. Besides, the “SBDP signal in IPL at 4 and 6 h” value (0.3 mg/kg i.p. 2 h after IOP elevation, WT mice) is recorded as “significantly reduced”. For the same compound, the “cell survival rate (cell count in IOP-elevated eye to sham eye) versus vehicle” value (all three C2l injected groups) is “significantly increased”. Besides, the “PTEN degradation at 4 and 6 h” value (injected 2 h after IOP elevation, WT mice) is “completely blocked”.
